Experimental data published in patent publication US8440442B2, “Method of assaying 5-FU” (Myriad Genetics, Inc, priority 2009, dated 2013).

Tests used:
[1] = molecular target: T1, dihydropyrimidine dehydrogenase (DPD) (Homo sapiens, UniProt Q12882); assay: 5-Vinyluracil, 5-iodouracil and gimeracil as stabilizer of 5-FU in spiked donor blood; format: biochemical; conditions: 500 ng/mL 5-FU; 5-iodouracil 10/40 μg/mL, 5-vinyluracil 5/20 μg/mL, gimeracil 300/1,200 ng/mL; 45 minutes room temperature (FIG. 3)
T1 construct: from tissue; host or cells: donor whole blood (K2EDTA), plasma separated from it, and WBC/buffy coat
T1 sequence (Q12882 4-1025): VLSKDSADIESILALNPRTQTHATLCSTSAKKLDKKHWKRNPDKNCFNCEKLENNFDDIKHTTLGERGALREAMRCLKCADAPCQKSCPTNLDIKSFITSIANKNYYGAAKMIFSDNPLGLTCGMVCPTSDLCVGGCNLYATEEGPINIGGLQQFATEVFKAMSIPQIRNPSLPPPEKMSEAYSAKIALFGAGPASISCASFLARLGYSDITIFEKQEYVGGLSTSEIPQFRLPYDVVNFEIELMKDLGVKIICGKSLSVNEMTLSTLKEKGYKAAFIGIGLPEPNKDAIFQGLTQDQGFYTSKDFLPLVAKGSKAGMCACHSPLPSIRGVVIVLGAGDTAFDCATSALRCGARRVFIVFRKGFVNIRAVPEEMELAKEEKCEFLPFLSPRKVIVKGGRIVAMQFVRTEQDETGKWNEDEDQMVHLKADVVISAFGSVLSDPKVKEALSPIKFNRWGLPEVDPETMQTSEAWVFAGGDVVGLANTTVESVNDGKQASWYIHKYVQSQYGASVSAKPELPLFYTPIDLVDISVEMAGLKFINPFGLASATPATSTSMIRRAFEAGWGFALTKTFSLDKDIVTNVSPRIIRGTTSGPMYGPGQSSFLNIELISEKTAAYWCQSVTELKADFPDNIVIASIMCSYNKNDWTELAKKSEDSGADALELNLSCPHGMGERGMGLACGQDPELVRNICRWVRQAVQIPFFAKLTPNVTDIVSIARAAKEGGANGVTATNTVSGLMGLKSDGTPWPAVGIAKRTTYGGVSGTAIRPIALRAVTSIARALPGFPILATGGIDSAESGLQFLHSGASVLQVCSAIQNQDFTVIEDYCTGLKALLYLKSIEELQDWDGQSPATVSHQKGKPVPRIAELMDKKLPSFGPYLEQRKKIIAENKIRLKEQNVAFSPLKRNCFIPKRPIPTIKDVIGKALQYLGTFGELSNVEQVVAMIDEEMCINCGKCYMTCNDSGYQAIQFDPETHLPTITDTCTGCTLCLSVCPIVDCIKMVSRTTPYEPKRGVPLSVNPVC
Method: (§1) In the following illustrative examples, 5-FU was measured using an antibody-based agglutination assay on the Olympus AU680 Analyzer using an antibody disclosed in U.S. Pat. No. 7,205,116. Specifically, the concentration of 5-FU in a sample is determined based on the absorbance of a sample, which is determined by the amount of aggregation by the nanoparticles. The system requires two reagents, which when mixed in the absence of free 5-FU will form large aggregates of nanoparticles and scatter light to result in a higher absorption value. In the presence of free 5-FU, the agglutination reaction becomes somewhat inhibited and scattering of light is less, causing a lower absorption value. The instrument is calibrated twice monthly, and a curve is generated (Absorbance vs. 5-FU concentration). Absorbance values from individual samples are compared against this curve to determine concentration.
(§2) Generally in the agglutination assay, 95 μl of a buffer containing 5-FU-labeled amino-dextran is pipetted to a cuvette, followed by 7 μL of a filtered plasma sample. The sample and reagent are mixed and then incubated for about 3.5 minutes. 95 μl of 5-FU antibody-conjugated nanoparticles is pipetted into the cuvette and mixed. The complete reaction incubates for about 6.2 minutes. A series of 27 measurements at 600 nm are taken at regular intervals by the AU680 analyzer throughout this process, and 5-FU concentration is calculated using the measurements from two specific time points.
Three tubes of blood (spray-on K2EDTA tubes, 10 mL) was drawn from each of six donors, and blood tubes were gently inverted several times to mix anti-coagulant. Blood was pooled and kept separate by donor. An aliquot of each blood sample was transferred to a new conical tube, and a calculated volume of stock 5-FU (at 200 ng/μL) was spiked into each blood sample for a final concentration of 500 ng/mL 5-FU. Each blood sample was aliquotted to a set of four tubes (5 mL blood per tube). Each set of tubes was different, but included a combination of the conditions below: […]

[2] = molecular target: T1, dihydropyrimidine dehydrogenase (DPD); assay: Eniluracil as stabilizer of 5-FU in spiked donor blood (5-FU agglutination immunoassay); format: biochemical; conditions: eniluracil 4000 or 1000 ng/mL final in blood, DMSO; 500 ng/mL 5-FU; room temperature 45 minutes or 24 hours (FIG. 2)
Method: as §1
as §2, with “95 μl of 5-FU antibody-conjugated nanoparticles is pipetted into the cuvette and mixed. The complete reaction incubates for about 6.2 minutes.” left out, “points. […]” for “points.”

SMILES | stabilizing 5-FU in blood samples [1] | preventing degradation of 5-FU in blood samples [2]
O=c1[nH]cc(I)c(=O)[nH]1 [5-iodouracil] | effective | 
C=Cc1c[nH]c(=O)[nH]c1=O [5-vinyluracil] | effective | 
C#Cc1c[nH]c(=O)[nH]c1=O [eniluracil] |  | effective
